In one data set the target is T1, D(4) dopamine receptor (Homo sapiens, UniProt P21917).
T1 sequence (P21917 whole entry): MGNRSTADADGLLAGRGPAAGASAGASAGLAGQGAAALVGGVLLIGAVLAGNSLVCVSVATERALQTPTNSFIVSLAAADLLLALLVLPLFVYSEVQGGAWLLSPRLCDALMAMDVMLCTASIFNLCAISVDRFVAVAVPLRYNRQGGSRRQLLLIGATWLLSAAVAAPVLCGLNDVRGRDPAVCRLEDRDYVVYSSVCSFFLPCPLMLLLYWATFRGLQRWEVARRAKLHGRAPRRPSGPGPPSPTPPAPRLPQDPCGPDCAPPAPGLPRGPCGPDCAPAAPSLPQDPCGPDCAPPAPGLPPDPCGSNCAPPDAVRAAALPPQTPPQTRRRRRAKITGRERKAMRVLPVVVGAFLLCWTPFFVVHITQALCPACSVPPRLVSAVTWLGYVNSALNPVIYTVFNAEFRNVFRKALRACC
As to the kind of experiment: DRUGMATRIX: Dopamine D4.2 radioligand binding (ligand: [3H] Spiperone). The class given is cell membranes, CHO-K1, Membrane. The note with it: cho-k1; Not Active = under 50% inhibition at 10 µM.
Chain of Cytochrome P450 2C19 (P33261 whole entry): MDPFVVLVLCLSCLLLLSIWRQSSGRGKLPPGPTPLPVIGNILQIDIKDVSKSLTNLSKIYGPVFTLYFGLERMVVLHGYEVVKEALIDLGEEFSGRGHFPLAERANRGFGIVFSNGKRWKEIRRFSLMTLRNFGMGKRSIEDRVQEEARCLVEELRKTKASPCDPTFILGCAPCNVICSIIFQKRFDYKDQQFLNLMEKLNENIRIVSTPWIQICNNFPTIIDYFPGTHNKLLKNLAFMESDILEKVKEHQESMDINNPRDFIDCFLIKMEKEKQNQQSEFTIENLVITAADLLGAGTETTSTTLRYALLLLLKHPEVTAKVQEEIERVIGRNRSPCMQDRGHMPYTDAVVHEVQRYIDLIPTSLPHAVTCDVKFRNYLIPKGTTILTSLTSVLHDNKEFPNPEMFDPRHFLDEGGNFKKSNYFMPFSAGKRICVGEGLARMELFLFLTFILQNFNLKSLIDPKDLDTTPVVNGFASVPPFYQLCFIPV
Chain of Tyrosine-protein kinase Lck (P06239 whole entry): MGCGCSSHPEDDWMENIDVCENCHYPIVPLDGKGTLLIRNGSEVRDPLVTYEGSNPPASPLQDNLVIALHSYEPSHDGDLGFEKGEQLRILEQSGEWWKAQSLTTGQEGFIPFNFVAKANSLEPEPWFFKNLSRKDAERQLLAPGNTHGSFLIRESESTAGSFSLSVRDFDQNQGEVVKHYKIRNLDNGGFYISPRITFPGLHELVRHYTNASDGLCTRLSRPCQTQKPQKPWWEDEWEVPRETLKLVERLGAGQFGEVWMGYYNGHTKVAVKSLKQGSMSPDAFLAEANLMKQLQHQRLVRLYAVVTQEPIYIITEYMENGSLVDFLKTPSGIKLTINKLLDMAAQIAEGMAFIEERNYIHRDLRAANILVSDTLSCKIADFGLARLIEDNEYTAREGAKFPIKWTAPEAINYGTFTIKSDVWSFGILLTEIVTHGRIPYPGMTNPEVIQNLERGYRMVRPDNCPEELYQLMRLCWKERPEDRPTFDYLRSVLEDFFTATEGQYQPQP
`C#CC1(O)CC[C@H]2[C@@H]3CCC4=CC(=O)CC[C@@H]4[C@H]3CC[C@@]21CC` (stereo partly drawn) [NORGESTREL]: the IC50 result is “Not Active”.
Still for that read-out and setting: the entry for `COC(=O)Nc1nc2ccc([S+]([O-])c3ccccc3)cc2[nH]1` (stereo not drawn) [OXFENDAZOLE] is “Not Active”; for `C[n+]1ccc(-c2cc[n+](C)cc2)cc1.[Cl-].[Cl-]` [PARAQUAT DICHLORIDE] it is “Not Active”.

The next data set concerns the target Carbonic anhydrase 2 (Homo sapiens, UniProt P00918). As to the kind of experiment: DRUGMATRIX: Carbonic Anhydrase II enzyme inhibition (substrate: 4-Nitrophenyl acetate (4-NPA)). The class given is tissue-based. The note with it: erythrocyte; Not Active = under 50% inhibition at 10 µM.
For the compound `C#CC1(O)CC[C@H]2[C@@H]3CCC4=CC(=O)CC[C@@H]4[C@H]3CC[C@@]21CC` (stereo partly drawn) [NORGESTREL], the IC50 entry is recorded as “Not Active”.
Turning to `COC(=O)Nc1nc2ccc([S+]([O-])c3ccccc3)cc2[nH]1` (stereo not drawn) [OXFENDAZOLE], the IC50 entry is recorded as “Not Active”.
Still for that read-out and setting: the result for `C[n+]1ccc(-c2cc[n+](C)cc2)cc1.[Cl-].[Cl-]` [PARAQUAT DICHLORIDE] reads “Not Active”.

For the next data set, the target named is Mitogen-activated protein kinase 1 (Homo sapiens, UniProt P28482). As to the kind of experiment: DRUGMATRIX: Protein Serine/Threonine Kinase, ERK2 enzyme inhibition (substrate: Myelin Basic Protein). Also noted: species or system Escherichia coli. Particulars: Not Active = under 50% inhibition at 10 µM.
Chain of Mitogen-activated protein kinase 1 (P28482 whole entry): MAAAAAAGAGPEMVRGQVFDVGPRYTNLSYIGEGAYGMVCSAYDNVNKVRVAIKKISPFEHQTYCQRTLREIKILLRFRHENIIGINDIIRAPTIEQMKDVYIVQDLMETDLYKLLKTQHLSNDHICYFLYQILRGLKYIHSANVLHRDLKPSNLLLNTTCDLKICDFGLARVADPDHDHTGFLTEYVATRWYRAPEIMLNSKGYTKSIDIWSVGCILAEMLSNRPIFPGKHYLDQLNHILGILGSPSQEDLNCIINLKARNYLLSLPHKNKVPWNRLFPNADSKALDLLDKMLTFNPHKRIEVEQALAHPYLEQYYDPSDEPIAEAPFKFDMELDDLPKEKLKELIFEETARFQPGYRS
As to `C#CC1(O)CC[C@H]2[C@@H]3CCC4=CC(=O)CC[C@@H]4[C@H]3CC[C@@]21CC` (stereo partly drawn) [NORGESTREL], the IC50 entry is reported as “Not Active”.
Same read-out and setting: the result for `COC(=O)Nc1nc2ccc([S+]([O-])c3ccccc3)cc2[nH]1` (stereo not drawn) [OXFENDAZOLE] reads “Not Active”; that for `C[n+]1ccc(-c2cc[n+](C)cc2)cc1.[Cl-].[Cl-]` [PARAQUAT DICHLORIDE], “Not Active”.

System in another data set: not listed separately
The experiment in a line: DRUGMATRIX: Glutamate, NMDA, Phencyclidine radioligand binding (ligand: [3H] TCP). Format: cell membranes, Rattus norvegicus, Wistar, Cerebral cortex, Membrane. The note with it: Not Active = under 50% inhibition at 10 µM.
With `C#CC1(O)CC[C@H]2[C@@H]3CCC4=CC(=O)CC[C@@H]4[C@H]3CC[C@@]21CC` (stereo partly drawn) [NORGESTREL], the IC50 entry is listed as “Not Active” and the Ki result is listed as “Not Active”.
On to `COC(=O)Nc1nc2ccc([S+]([O-])c3ccccc3)cc2[nH]1` (stereo not drawn) [OXFENDAZOLE], for which the IC50 entry is recorded as “Not Active” and the Ki entry is listed as “Not Active”.
For `C[n+]1ccc(-c2cc[n+](C)cc2)cc1.[Cl-].[Cl-]` [PARAQUAT DICHLORIDE], the IC50 entry was “Not Active” and the Ki result was “Not Active”.

The next data set has as its target Tyrosine-protein kinase Lck (Homo sapiens, UniProt P06239). The experiment in a line: DRUGMATRIX: Protein Tyrosine Kinase, LCK enzyme inhibition (substrate: Poly(Glu:Tyr)). Format: cell-based, Insect cells. Particulars: insect cells; Not Active = under 50% inhibition at 10 µM.
On to `C#CC1(O)CC[C@H]2[C@@H]3CCC4=CC(=O)CC[C@@H]4[C@H]3CC[C@@]21CC` (stereo partly drawn) [NORGESTREL], for which the IC50 entry is “Not Active”.
For `COC(=O)Nc1nc2ccc([S+]([O-])c3ccccc3)cc2[nH]1` (stereo not drawn) [OXFENDAZOLE], the IC50 result was “Not Active”.
For `C[n+]1ccc(-c2cc[n+](C)cc2)cc1.[Cl-].[Cl-]` [PARAQUAT DICHLORIDE], the IC50 entry is listed as “Not Active”.

The next data set has as its target Cytochrome P450 2C19 (Homo sapiens, UniProt P33261). The note with it: bti-tn-5b1-4. Note: in other assays of this panel Not Active means under 50% inhibition at 10 µM.
In the case of `C#CC1(O)CC[C@H]2[C@@H]3CCC4=CC(=O)CC[C@@H]4[C@H]3CC[C@@]21CC` (stereo partly drawn) [NORGESTREL], the IC50 entry is recorded as “Not Active” and the Ki entry is on record as “Not Active”.
With `COC(=O)Nc1nc2ccc([S+]([O-])c3ccccc3)cc2[nH]1` (stereo not drawn) [OXFENDAZOLE], the IC50 entry is recorded as “Not Active” and the Ki result is on record as “Not Active”.
Turning to `C[n+]1ccc(-c2cc[n+](C)cc2)cc1.[Cl-].[Cl-]` [PARAQUAT DICHLORIDE], the IC50 entry is “Not Active” and the Ki entry is “Not Active”.

The target in another data set is T2, Cytochrome P450 1A2 (Homo sapiens, UniProt P05177). Note: in other assays of this panel Not Active means under 50% inhibition at 10 µM.
T2 sequence (P05177 whole entry): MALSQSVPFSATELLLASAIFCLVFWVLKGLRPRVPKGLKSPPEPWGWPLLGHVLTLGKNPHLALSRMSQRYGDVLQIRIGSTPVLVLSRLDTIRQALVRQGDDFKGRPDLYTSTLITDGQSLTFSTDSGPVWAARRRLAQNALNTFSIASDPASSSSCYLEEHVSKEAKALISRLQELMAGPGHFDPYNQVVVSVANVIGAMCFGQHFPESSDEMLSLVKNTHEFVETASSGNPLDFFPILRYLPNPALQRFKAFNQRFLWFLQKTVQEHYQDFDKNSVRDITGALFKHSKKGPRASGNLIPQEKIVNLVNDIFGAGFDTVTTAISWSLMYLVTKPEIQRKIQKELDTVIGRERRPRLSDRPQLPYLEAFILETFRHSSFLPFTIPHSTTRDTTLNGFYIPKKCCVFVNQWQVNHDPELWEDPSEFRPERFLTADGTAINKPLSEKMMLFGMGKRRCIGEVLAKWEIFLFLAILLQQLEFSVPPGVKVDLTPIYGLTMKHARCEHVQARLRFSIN
Particulars: bti-tn-5b1-4.
Regarding `C#CC1(O)CC[C@H]2[C@@H]3CCC4=CC(=O)CC[C@@H]4[C@H]3CC[C@@]21CC` (stereo partly drawn) [NORGESTREL], the IC50 result is given as “Not Active” and the Ki entry is reported as “Not Active”.
In the case of `COC(=O)Nc1nc2ccc([S+]([O-])c3ccccc3)cc2[nH]1` (stereo not drawn) [OXFENDAZOLE], the IC50 result is “Not Active” and the Ki result is “Not Active”.
On to `C[n+]1ccc(-c2cc[n+](C)cc2)cc1.[Cl-].[Cl-]` [PARAQUAT DICHLORIDE], for which the IC50 entry is “Not Active” and the Ki entry is on record as “Not Active”.

The next data set addresses T3, Nitric oxide synthase, inducible (Mus musculus, UniProt P29477).
T3 sequence (P29477 whole entry): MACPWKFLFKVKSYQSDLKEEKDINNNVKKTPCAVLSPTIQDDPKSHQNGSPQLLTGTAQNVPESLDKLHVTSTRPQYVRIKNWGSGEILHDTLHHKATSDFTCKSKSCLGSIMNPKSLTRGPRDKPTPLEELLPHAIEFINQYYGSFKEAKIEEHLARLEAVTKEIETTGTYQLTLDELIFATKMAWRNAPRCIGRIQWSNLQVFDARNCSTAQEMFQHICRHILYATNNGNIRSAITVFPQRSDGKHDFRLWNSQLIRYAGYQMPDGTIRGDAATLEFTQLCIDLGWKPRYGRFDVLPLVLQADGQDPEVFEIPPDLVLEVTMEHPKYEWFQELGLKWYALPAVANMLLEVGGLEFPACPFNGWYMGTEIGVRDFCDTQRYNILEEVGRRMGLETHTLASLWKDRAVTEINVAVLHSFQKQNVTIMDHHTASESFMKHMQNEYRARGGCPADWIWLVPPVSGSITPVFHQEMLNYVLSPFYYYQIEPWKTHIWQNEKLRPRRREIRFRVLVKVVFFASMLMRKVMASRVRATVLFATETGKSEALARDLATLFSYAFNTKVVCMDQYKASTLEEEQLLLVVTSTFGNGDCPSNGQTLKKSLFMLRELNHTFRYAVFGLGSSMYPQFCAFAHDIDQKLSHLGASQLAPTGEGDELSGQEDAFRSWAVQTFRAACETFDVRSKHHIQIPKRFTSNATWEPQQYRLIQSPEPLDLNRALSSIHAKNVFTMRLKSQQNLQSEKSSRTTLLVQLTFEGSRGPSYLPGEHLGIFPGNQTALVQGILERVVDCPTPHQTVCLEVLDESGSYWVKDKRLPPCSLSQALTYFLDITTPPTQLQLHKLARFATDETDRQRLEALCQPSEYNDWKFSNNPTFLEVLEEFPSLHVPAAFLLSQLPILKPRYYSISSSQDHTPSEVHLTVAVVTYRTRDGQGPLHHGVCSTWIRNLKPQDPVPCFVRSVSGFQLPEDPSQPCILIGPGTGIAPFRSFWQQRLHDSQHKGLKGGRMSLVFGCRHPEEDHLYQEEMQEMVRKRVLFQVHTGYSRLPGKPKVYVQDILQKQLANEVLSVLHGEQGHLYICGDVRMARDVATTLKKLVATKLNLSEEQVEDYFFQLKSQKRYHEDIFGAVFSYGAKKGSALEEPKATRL
Also noted: species or system Escherichia coli.
Conditions: not given
Consider `C#CC1(O)CC[C@H]2[C@@H]3CCC4=CC(=O)CC[C@@H]4[C@H]3CC[C@@]21CC` (stereo partly drawn) [NORGESTREL], for which the IC50 result is reported as “Not Active”.
In the case of `COC(=O)Nc1nc2ccc([S+]([O-])c3ccccc3)cc2[nH]1` (stereo not drawn) [OXFENDAZOLE], the IC50 entry is “Not Active”.
`C[n+]1ccc(-c2cc[n+](C)cc2)cc1.[Cl-].[Cl-]` [PARAQUAT DICHLORIDE]: the IC50 result is “Not Active”.

The values are drawn from ChEMBL document CHEMBL1909046, “DrugMatrix in vitro pharmacology data”.
